Tests used:
[1] = system: Elastin/Tropoelastin by normal human fibroblasts; assay: Release of Elastin/Tropoelastin by normal human fibroblasts (ELISA sandwich method); type: cell-based; conditions: TGF-β1 10-6% (positive control); vs control (placebo); n = 5
Description: Normal human dermal fibroblasts (NHDF) were cultured to confluence. The cells were then exposed or not to preparations comprising the Tyr-Arg dipeptide at different concentrations. The culture supernatants were assayed to determine the quantity of Elastin/Tropoelastin using an ELISA sandwich method. TGF-β1 was used as the positive control.

[2] = system: elastin/tropoelastin, NHDF; assay: Synthesis of elastin/tropoelastin by normal human fibroblasts (immunolabeling, image analysis); type: cell-based; conditions: TGF-β1, vs control
Description: Principle: normal human fibroblastes (NHDF) were cultured to confluence. The cells were then exposed or not to preparations containing Tyr-Arg peptide. The cellular layers are then marked with an antibody recognising specifically elastine.

Fibrillin-1 by NHDF = assay: Synthesis of Fibrillin-1 by NHDF (immunolabeling method); type: cell-based, human; conditions: TGF-β1 10^−6%, vs control
Description: As indicated in the introduction, elastin formation is not sufficient. The presence of microfibril scaffolding is necessary. The induction of Fibrillin-1 synthesis was thus investigated.
NHDF were cultured to confluence. The cells were then exposed or not exposed to Tyr-Arg dipeptide at different concentrations for 18 days. The cell layers were then labeled with an antibody to specifically detect Fibrillin-1 by immunofluorescence.
Standardized photographs enabled imaging and quantification of Fibrillin-1 synthesis by image analysis (n=4).

[3] = system: Fibulin-5 synthesis by NHDF; assay: Fibulin-5 synthesis by NHDF (Western Blot method); type: cell-based, human; conditions: 10^−6% TGF-β1
Description: NHDF were cultured to confluence. The cells were exposed or not exposed to preparations containing Tyr-Arg dipeptide. The cell layers were then lysed and analyzed using the Western Blot* method. Fibulin-5 synthesis was detected using a specific antibody. The resulting bands were quantified using appropriate image-analysis software. * Western Blot: the cell layers were blended in lysis buffer. The lysate was applied to a polyacrylamide gel for electrophoresis. After migration, the proteins were transferred to a nitrocellulose membrane and the proteins of interest detected using a specific antibody. Image analysis was used to quantify the two fibulin-5 bands obtained.

[4] = system: LOXL-1 in reconstructed skin specimens (Full Thickness Skin PHENION); assay: LOXL-1 (lysyl oxydase like 1) synthesis in reconstructed skin specimens (immunolabeling); type: cell-based; conditions: TGF-β1 used as positive control
Description: LOXL synthesis was analyzed by preparations containing Tyr-Arg dipeptide in reconstructed skin specimens (Full Thickness Skin PHENION).
LOXL synthesis after application of the dipeptide was evaluated by an immunohistochemical analysis.
Preparations of Tyr-Arg dipeptide were applied to the surface of ? aged ? or not ? aged ? skins from the evening of D1 then every day. The skins were thereafter frozen for the immunohistochemical analysis.

[5] = system: transglutaminase activity in NHDF; assay: Transglutaminase activity in NHDF (Dansyl Cadaverine substrate, fluorescence); type: cell-based, human; conditions: TGF-β1 10^−6%, vs control, n=6
Source text: NHDF were cultivated until confluence. The cells were exposed or not exposed to preparations containing or not Tyr-Arg dipeptide. The cell layers are then exposed to transglutaminase substrate (Dansyl Cadaverine, DC). The fluorescence obtained is proportional to transglutaminase activity. (n=6).

With TGF-β1 [reference compound] the “% change in the elastin/tropoelastin synthesis” value [1] was “+1127%; p < 0.01”, the “% change (elastin/tropoelastin, immunolabeling)” value [2] was “+87%; p < 0.01” and the “% change of Fibrillin-1 synthesis” value (Fibrillin-1 by NHDF) was “+760%; p < 0.01”. The “% change/Control (fibulin-5 bands)” value [3] was “+55% p < 0.01”, the “Mean intensity (UA) of the fibulin-5 bands” value ([3]; control 18.6 +/− 4.3) was 28.8 +/− 8 UA and the “Effect on synthesis of LOXL-1 (positive control)” value [4] was “expected effect stimulating the synthesis of LOXL-1”. For the same substance, the “% change of the transglutaminase activity (AFU/10^6 cells)” value [5] was “+26%; p < 0.01”.

— patent US20120076842A1, “COSMETIC USE OF TYR-ARG DIPEPTIDE TO COMBAT CUTANEOUS SAGGING” (SEDERMA, priority 2009, published 2012)
